Source: PubChem BioAssay (NCI)
Values joined by “and” are separate entries in the source; they are usually repeats but may differ in a detail not shown here. Identical values can stand only once.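 Assay format: 96-well plates, 48-hour exposure. GI50 is the concentration that inhibits growth by half. Definition used: TGI = concentration required for complete inhibition of growth.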

Legend:
Assay in all cases: NCI tumour cell line growth inhibition, 48 h
HT29 colon = test system: HT29 colon
SK-MEL-2 melanoma = test system: SK-MEL-2 melanoma
UACC-257 melanoma = test system: UACC-257 melanoma
HOP-62 NSCLC = test system: HOP-62 NSCLC
OVCAR-8 ovarian = test system: OVCAR-8 ovarian
M14 melanoma = test system: M14 melanoma
OVCAR-3 ovarian = test system: OVCAR-3 ovarian
DU-145 prostate = test system: DU-145 prostate
MDA-MB-435 = test system: MDA-MB-435
K-562 leukemia = test system: K-562 leukemia

Compound	GI50 (HT29 colon)	TGI (HT29 colon)	GI50 (SK-MEL-2 melanoma)	TGI (SK-MEL-2 melanoma)	GI50 (UACC-257 melanoma)	TGI (UACC-257 melanoma)	GI50 (HOP-62 NSCLC)	TGI (HOP-62 NSCLC)	GI50 (OVCAR-8 ovarian)	TGI (OVCAR-8 ovarian)	GI50 (M14 melanoma)	TGI (M14 melanoma)	GI50 (OVCAR-3 ovarian)	TGI (OVCAR-3 ovarian)	GI50 (DU-145 prostate)	TGI (DU-145 prostate)	GI50 (MDA-MB-435)	TGI (MDA-MB-435)	GI50 (K-562 leukemia)	TGI (K-562 leukemia)
c1cc[c]([Ge]([O]c2cccc3cccnc23)([c]2ccccc2)[c]2ccccc2)cc1	3.8 µM	10.8 µM	2.59 µM	11.7 µM	3.94 µM	14.5 µM	12.7 µM	25.6 µM	3.25 µM	10.6 µM	5.63 µM	17.5 µM	2.55 µM	6.82 µM	–	–	–	–	–	–
COc1ccc(-c2cnc(-c3ccc(OC)cc3)n2-c2cc(OC)c(OC)c(OC)c2)cc1	47.7 µM	> 100 µM	32.3 µM	> 100 µM	22.9 µM	85.9 µM	21.4 µM	44.9 µM	19.7 µM	50.7 µM	44.7 µM	> 100 µM	24.7 µM	65 µM	30.7 µM	78.2 µM	31.2 µM	> 100 µM	–	–
O=C1OC2(c3ccc(O)cc3Oc3cc(O)ccc32)c2cccc3cccc1c23	21 µM	47.4 µM	21.4 µM	48 µM	23.6 µM	67.2 µM	17 µM	33.9 µM	17.4 µM	36.9 µM	22.3 µM	56.7 µM	–	–	18.9 µM	36.9 µM	19.1 µM	38 µM	33.2 µM	> 100 µM
O=CCCn1[nH]c(=O)ccc1=O	–	> 100 µM	–	> 100 µM	–	> 100 µM	–	–	–	> 100 µM	–	> 100 µM	–	> 100 µM	–	–	–	–	–	> 100 µM
COC(=O)[C@H](Cc1cn(C)cn1)NC(=O)[C@H](CC(C)C)NC(=O)Nc1cc(C(F)(F)F)cc(C(F)(F)F)c1	8.05 µM	> 10 µM	> 10 µM	> 10 µM	–	–	> 10 µM	> 10 µM	9.54 µM	> 10 µM	> 10 µM	> 10 µM	2.23 µM	4.82 µM	> 10 µM	> 10 µM	> 10 µM	> 10 µM	6.41 µM	> 10 µM
COc1ccc(C)c2sc(N(Cc3cccnc3)C(=O)c3ccc(C#N)cc3)nc12	28.5 µM	> 100 µM	–	–	56 µM	> 100 µM	> 100 µM	> 100 µM	48.1 µM	> 100 µM	44.9 µM	> 100 µM	40.1 µM	> 100 µM	51.9 µM	> 100 µM	35.9 µM	> 100 µM	37.9 µM	> 100 µM
CCOc1ccc(-c2nc3ccc(-c4nc5ccc(N6CCN(C)CC6)cc5[nH]4)cc3[nH]2)cc1	–	–	1.07 µM	2.49 µM	–	–	0.456 µM	1.6 µM	0.162 µM and 0.315 µM	0.54 µM and 1.25 µM	0.264 µM	2.08 µM	0.125 µM	0.393 µM	0.402 µM	1.57 µM	0.69 µM	2.8 µM	0.696 µM	–
